Source: patent US5120782A, “Substituted pyrrolo-pyridines pharmaceuticals” (Bayer Aktiengesellschaft, priority 1990, dated 1992)

biological target: T1, 3-hydroxy-3-methyl-glutaryl-coenzyme A (HMG-CoA) reductase (Rattus norvegicus, UniProt P51639); assay: enzyme activity determination, inhibition of HMG-CoA reductase relative to mevinolin; assay type: biochemical, Male Rico rats (liver); details: relative inhibitory potency; IC50 of reference mevinolin set at 1 and compared with simultaneously determined IC50 of test compound; 20 min pre-incubation, 60 min at 37° C.
T1 construct: the livers were removed from the animals and placed on ice; from tissue; host or cells: liver of male Rico rats fed colestyramine; 100,000 g (microsomal) pellet, frozen at -78° C
T1 sequence (P51639 1-887): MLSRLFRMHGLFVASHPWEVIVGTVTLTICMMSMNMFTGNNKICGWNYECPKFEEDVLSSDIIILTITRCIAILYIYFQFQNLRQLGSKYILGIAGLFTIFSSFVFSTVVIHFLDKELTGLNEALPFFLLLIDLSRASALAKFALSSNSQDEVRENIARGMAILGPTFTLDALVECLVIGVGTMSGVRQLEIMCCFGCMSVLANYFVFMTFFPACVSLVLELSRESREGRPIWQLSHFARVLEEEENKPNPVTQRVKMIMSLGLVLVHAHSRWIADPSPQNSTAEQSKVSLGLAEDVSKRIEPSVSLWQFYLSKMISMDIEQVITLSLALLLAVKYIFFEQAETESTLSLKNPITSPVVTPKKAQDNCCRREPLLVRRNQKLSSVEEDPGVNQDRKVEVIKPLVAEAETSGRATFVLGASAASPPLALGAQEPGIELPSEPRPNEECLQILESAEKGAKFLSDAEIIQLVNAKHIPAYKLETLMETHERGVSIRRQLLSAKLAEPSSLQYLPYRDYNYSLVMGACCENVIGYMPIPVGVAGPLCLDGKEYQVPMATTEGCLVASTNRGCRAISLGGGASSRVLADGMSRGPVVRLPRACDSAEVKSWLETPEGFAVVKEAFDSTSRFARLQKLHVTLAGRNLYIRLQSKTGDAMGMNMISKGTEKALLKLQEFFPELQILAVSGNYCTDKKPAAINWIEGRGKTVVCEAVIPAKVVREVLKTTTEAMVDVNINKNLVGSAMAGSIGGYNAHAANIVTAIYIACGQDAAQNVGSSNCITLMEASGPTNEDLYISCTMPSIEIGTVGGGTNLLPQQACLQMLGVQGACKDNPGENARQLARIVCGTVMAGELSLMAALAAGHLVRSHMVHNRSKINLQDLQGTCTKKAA
Protocol: The enzyme activity determination was carried out as modified by G. C. Ness et al., Archives of Biochemistry and Biophysics 197, 493-499 (1979). Male Rico rats (body weight 300-400 g) were treated with altromin powdered feed, to which 40 g of colestyramine/kg of feed had been added, for 11 days. After decapitation, the livers were removed from the animals and placed on ice. The livers were comminuted and homogenized 3 times in a Potter-Elvejem homogenizsr in 3 volumes of 0.1 M sucrose, 0.05 M KCl, 0.04 M Kx Hy phosphate, 0.03 M ethylene-diaminetetraacetic acid, 0.002 M dithiothreitol (SPE) buffer pH 7.2. The mixture was then centrifuged at 15,000 g for 15 minutes and the sediment was discarded. The supernatant was sedimented at 100,000 g for 75 minutes. The pellet was taken up in 1/4 volumes of SPE buffer, homogenized again and then centrifuged again at 100,000 g for 60 minutes. The pellet was taken up using a 5-fold amount of its volume of SPE buffer, homogenized and frozen and stored at -78° C. (=enzyme solution).
For testing, the test compounds (or mevinolin as a reference substance) were dissolved in dimethylformamide with the addition of 5 vol. % of 1 N NaOH and employed in the enzyme test using 10 μl in various concentrations. The test was begun after 20 minutes pre-incubation of the compounds with the enzyme at 37° C. The test mixture amounted to 0.380 ml and contained 4 μmol of glucose 6-phosphate, 1.1 mg of bovine serum albumin, 2.1 μmol of dithiothreitol, 0.35 μmol of NADP, 1 unit of glucose 6-phosphate dehydrogenase, 35 μmol of Kx Hy phosphate pH 7.2, 20 μl of enzyme preparation and 56 nmol of 3-hydroxy-3-methyl--glutaryl coenzyme A (glutaryl-3-^14 C) of 100,000 dpm.
After an incubation of 60 minutes at 37° C., the mixture was centrifuged and 600 μl of the supernatant was applied to a 0.7×4 cm column packed with a 5-chloride 100-200 mesh (anion exchanger). The column was washed with 2 ml of distilled water and 3 ml of Aquasol was added to the runnings plus washing water and counted in an LKB scintillation counter. IC50 values were determined by intrapolation by plotting the percentage inhibition against the concentration of the compound in the test. In order to determine the relative inhibitory potency, the IC50 value of the reference substance mevinolin was set at 1 and compared with the simultaneously determined IC50 value of the test compound.

in vitro relative activity (Mevinolin = 1) | Structure (SMILES)
10 | CC(C)c1nc2c(ccn2CCc2ccccc2)c(-c2ccc(F)cc2)c1/C=C/[C@@H](O)C[C@@H](O)CC(=O)O (relative stereo) [Example 2f]
3 | CC(C)c1nc2c(ccn2C(C)C)c(-c2ccc(F)cc2)c1/C=C/[C@@H](O)C[C@@H](O)CC(=O)O (relative stereo) [Example 2c]
3 | COC(=O)C[C@H](O)C[C@H](O)/C=C/c1c(C(C)C)nc2c(ccn2C)c1-c1ccc(F)cc1 (relative stereo) [Example 1b]
4 | COC(=O)C[C@H](O)C[C@H](O)/C=C/c1c(C(C)C)nc2c(ccn2Cc2ccccc2)c1-c1ccc(F)cc1 (relative stereo) [Example 1g]
17 | COC(=O)C[C@H](O)C[C@H](O)/C=C/c1c(C(C)C)nc2c(ccn2CCc2ccccc2)c1-c1ccc(F)cc1 (relative stereo) [Example 1f]
24 | COC(=O)C[C@H](O)C[C@H](O)/C=C/c1c(C(C)C)nc2c(ccn2CCC#N)c1-c1ccc(F)cc1 (relative stereo) [Example 1j]
10 | C=CCn1ccc2c(-c3ccc(F)cc3)c(/C=C/[C@@H](O)C[C@@H](O)CC(=O)O)c(C(C)C)nc21 (relative stereo) [Example 2h]
13 | COC(=O)C[C@H](O)C[C@H](O)/C=C/c1c(C(C)C)nc2c(ccn2C(C)C)c1-c1ccc(F)cc1 (relative stereo) [Example 1c]
3 | COC(=O)C[C@H](O)C[C@H](O)/C=C/c1c(C(C)C)nc2[nH]ccc2c1-c1ccc(F)cc1 (relative stereo) [Example 1a, Methyl erythro-(E)-7-[4-(4-fluorophenyl)-6-isopropyl-1H-pyrrolo[2,3-b]pyridin-5-yl]3,5-dihydroxy-hept-6-enoate]
9 | COC(=O)C[C@H](O)C[C@H](O)/C=C/c1c(C(C)C)nc2c(ccn2Cc2cccnc2)c1-c1ccc(F)cc1 (relative stereo) [Example 1i]
27 | COC(=O)C[C@H](O)C[C@H](O)/C=C/c1c(C(C)C)nc2c(ccn2CC#N)c1-c1ccc(F)cc1 (relative stereo) [Example 1d]
2 | CC(C)c1nc2c(ccn2Cc2ccccc2)c(-c2ccc(F)cc2)c1/C=C/[C@@H](O)C[C@@H](O)CC(=O)O (relative stereo) [Example 2g]
3 | CC(C)c1nc2c(ccn2C)c(-c2ccc(F)cc2)c1/C=C/[C@@H](O)C[C@@H](O)CC(=O)O (relative stereo) [Example 2b]
17 | C#CCn1ccc2c(-c3ccc(F)cc3)c(/C=C/[C@@H](O)C[C@@H](O)CC(=O)OC)c(C(C)C)nc21 (relative stereo) [Example 1e]
3 | CC(C)c1nc2[nH]ccc2c(-c2ccc(F)cc2)c1/C=C/[C@@H](O)C[C@@H](O)CC(=O)O (relative stereo) [Example 2a, Sodium erythro-(E)-7-[4-(4-fluorophenyl)-6-isopropyl-1H-pyrrolo[2,3-b]pyridin-5-yl]-3,5-dihydroxy-hept-6-enoate]
33 | C=CCn1ccc2c(-c3ccc(F)cc3)c(/C=C/[C@@H](O)C[C@@H](O)CC(=O)OC)c(C(C)C)nc21 (relative stereo) [Example 1h]
